Measurements published in US20230257374A1, “NOVEL KRAS G12C PROTEIN INHIBITOR, PREPARATION METHOD THEREFOR, AND USE THEREOF” (INNOVENT BIOLOGICS (SUZHOU) CO., LTD., priority 2019, published 2023).

What follows are compounds tested against T1, KRAS G12C protein (Homo sapiens, UniProt P01116, G12C) (assay: ERK protein phosphorylation assay (p-ERK) in H358 cells). Conditions: H358 cells expressing KRAS G12C protein, 3 h incubation with compound; read-out: IC50, inhibiting phosphorylation of KRAS G12C protein-mediated downstream signaling (p-ERK).
T1 construct: H358 cells (ATCC, CRL-5807) expressing KRAS G12C protein; host or cells: H358 (NCI-H358) cells
T1 sequence (P01116 1-188 isoform P01116-2 G12C): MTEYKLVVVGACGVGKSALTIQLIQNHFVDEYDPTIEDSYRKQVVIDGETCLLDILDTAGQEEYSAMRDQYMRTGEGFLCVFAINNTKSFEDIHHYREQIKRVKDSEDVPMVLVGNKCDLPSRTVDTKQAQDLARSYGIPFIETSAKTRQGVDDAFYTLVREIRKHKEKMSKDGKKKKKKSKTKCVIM
Type: cell-based
Set-up: scale not given here
Method: The cells were cultured in a 5% CO2 cell incubator for 16 h. The serially diluted compound was added to the cell medium with Echo550 at a final DMSO concentration of 0.5%, and the incubation was continued for 3 h. Then 8% paraformaldehyde (Solarbio, P1112) was added at 40 μL/well, followed by incubation at room temperature for 20 min. After one washing with PBS, cold 100% methanol was added at 40 μL/well for permeabilization for 10 min. […] Washing with PBST was performed 3 times, with 2 min of incubation for each washing. […] Washing with PBST was performed 3 times, with 2 min of incubation for each washing. Finally, the cell culture plate was inverted and centrifuged at 1000 rpm for 1 min, after which fluorescence signals were read using Odyssey CLx.

IC50, < 1000 nM:
[2H]C([2H])([2H])c1cccc2cccc(N3CCc4c(nc(OC[C@@H]5CCCN5C)nc4N4CCN(C(=O)C(=C)F)[C@@H](CC#N)C4)C3)c12 [Compound 2, 2-((S)-1-(2-fluoroacryloyl)-4-(7-(8-(methyl-d3)naphthalen-1-yl)-2-(((S)-1-methylpyrrolidin-2-yl)methoxy)-5,6,7,8-tetrahydropyrido[3,4-d]pyrimidin-4-yl)piperazin-2-yl)acetonitrile]
[2H]C([2H])([2H])c1cccc2cccc(N3CCc4c(nc(OC[C@@H]5CCCN5C)nc4N4CCN(C(=O)/C=C/CNC5CC5)[C@@H](C)C4)C3)c12 [Compound 3, (E)-4-(cyclopropylamino)-1-((S)-2-methyl-4-(7-(8-(methyl-d3)naphthalen-1-yl)-2-(((S)-1-methylpyrrolidin-2-yl)methoxy)-5,6,7,8-tetrahydropyrido[3,4-d]pyrimidin-4-yl)piperazin-1-yl)-2-buten-1-one]
[2H]C([2H])([2H])c1cccc2cncc(N3CCc4c(nc(OC[C@@H]5CCCN5C)nc4N4CCN(C(=O)C=C)[C@@H](CC#N)C4)C3)c12 [Compound 4, 2-((S)-1-acryloyl-4-(7-(5-(methyl-d3)isoquinolin-4-yl)-2-(((S)-1-methylpyrrolidin-2-yl)methoxy)-5,6,7,8-tetrahydropyrido[3,4-d]pyrimidin-4-yl)piperazin-2-yl)acetonitrile]
[2H]C([2H])([2H])c1cccc2cccc(N3CCc4c(nc(OC[C@@H]5CCCN5C)nc4N4CCN(C(=O)C(=C)F)[C@@H](C)C4)C3)c12 [Compound 5, 2-fluoro-1-((S)-2-methyl-4-(7-(8-(methyl-d3)naphthalen-1-yl)-2-(((S)-1-methylpyrrolidin-2-yl)methoxy)-5,6,7,8-tetrahydropyrido[3,4-d]pyrimidin-4-yl)piperazin-1-yl)-2-propen-1-one]
C=CC(=O)N1CCN(c2nc(OC[C@@H]3CCCN3C)nc3c2CCN(c2cccc4cccc([11CH3])c24)C3)C[C@@H]1CC#N [Compound 6, 2-((S)-1-acryloyl-4-(7-(8-(methyl-^11C)naphthalen-1-yl)-2-(((S)-1-methylpyrrolidin-2-yl)methoxy)-5,6,7,8-tetrahydropyrido[3,4-d]pyrimidin-4-yl)piperazin-2-yl)acetonitrile]
[2H]C([2H])([2H])c1cccc2cccc(N3CCc4c(nc(OC[C@@H]5CCCN5C)nc4N4CCN(C(=O)C(=C)F)C[C@@H]4C)C3)c12 [Compound 7, 2-fluoro-1-((S)-3-methyl-4-(7-(8-(methyl-d3)naphthalen-1-yl)-2-(((S)-1-methylpyrrolidin-2-yl)methoxy)-5,6,7,8-tetrahydropyrido[3,4-d]pyrimidin-4-yl)piperazin-1-yl)-2-propen-1-one]
[2H]C([2H])([2H])c1cccc2cccc(N3CCc4c(nc(OC[C@@H]5CCCN5C)nc4N4CCN(C(=O)C=C)C[C@@H]4C)C3)c12 [Compound 8, 1-((S)-3-methyl-4-(7-(8-(methyl-d3)naphthalen-1-yl)-2-(((S)-1-methylpyrrolidin-2-yl)methoxy)-5,6,7,8-tetrahydropyrido[3,4-d]pyrimidin-4-yl)piperazin-1-yl)-2-propen-1-one]
C=C(F)C(=O)N1CCN(c2nc(OC[C@@H]3CCCN3C)nc3c2CCN(c2cccc4cccc([11CH3])c24)C3)C[C@@H]1CC#N [Compound 9, 2-((S)-1-(2-fluoroacryloyl)-4-(7-(8-(methyl-^11C)naphthalen-1-yl)-2-(((S)-1-methylpyrrolidin-2-yl)methoxy)-5,6,7,8-tetrahydropyrido[3,4-d]pyrimidin-4-yl)piperazin-2-yl)acetonitrile]
C=CC(=O)N1CCN(c2nc(OC[C@@H]3CCCN3C)nc3c2CCN(c2cccc4cccc([13CH3])c24)C3)C[C@@H]1CC#N [Compound 10, 2-((S)-1-acryloyl-4-(7-(8-(methyl-^13C)naphthalen-1-yl)-2-(((S)-1-methylpyrrolidin-2-yl)methoxy)-5,6,7,8-tetrahydropyrido[3,4-d]pyrimidin-4-yl)piperazin-2-yl)acetonitrile]
C=C(F)C(=O)N1CCN(c2nc(OC[C@@H]3CCCN3C)nc3c2CCN(c2cccc4cccc([13CH3])c24)C3)C[C@@H]1CC#N [Compound 11, 2-((S)-1-(2-fluoroacryloyl)-4-(7-(8-(methyl-^13C)naphthalen-1-yl)-2-(((S)-1-methylpyrrolidin-2-yl)methoxy)-5,6,7,8-tetrahydropyrido[3,4-d]pyrimidin-4-yl)piperazin-2-yl)acetonitrile]
C=CC(=O)N1CCN(c2nc(OC[C@@H]3CCCN3C)nc3c2CCN(c2cccc4cccc([14CH3])c24)C3)C[C@@H]1CC#N [Compound 12, 2-((S)-1-acryloyl-4-(7-(8-(methyl-^14C)naphthalen-1-yl)-2-(((S)-1-methylpyrrolidin-2-yl)methoxy)-5,6,7,8-tetrahydropyrido[3,4-d]pyrimidin-4-yl)piperazin-2-yl)acetonitrile]
C=C(F)C(=O)N1CCN(c2nc(OC[C@@H]3CCCN3C)nc3c2CCN(c2cccc4cccc([14CH3])c24)C3)C[C@@H]1CC#N [Compound 13, 2-((S)-1-(2-fluoroacryloyl)-4-(7-(8-(methyl-^14C)naphthalen-1-yl)-2-(((S)-1-methylpyrrolidin-2-yl)methoxy)-5,6,7,8-tetrahydropyrido[3,4-d]pyrimidin-4-yl)piperazin-2-yl)acetonitrile]
C=C(F)C(=O)N1CCN(c2nc(OC[C@@H]3CCCN3C)nc3c2CCN(c2cncc4cccc([14CH3])c24)C3)C[C@@H]1CC#N [Compound 14, 2-((S)-1-(2-fluoroacryloyl)-4-(7-(5-(methyl-^14C)isoquinolin-4-yl)-2-(((S)-1-methylpyrrolidin-2-yl)methoxy)-5,6,7,8-tetrahydropyrido[3,4-d]pyrimidin-4-yl)piperazin-2-yl)acetonitrile]
C=CC(=O)N1CCN(c2nc(OC[C@@H]3CCCN3C)nc3c2CCN(c2cncc4cccc([13CH3])c24)C3)C[C@@H]1CC#N [Compound 15, 2-((S)-1-acryloyl-4-(7-(5-(methyl-^13C)isoquinolin-4-yl)-2-(((S)-1-methylpyrrolidin-2-yl)methoxy)-5,6,7,8-tetrahydropyrido[3,4-d]pyrimidin-4-yl)piperazin-2-yl)acetonitrile]
C=C(F)C(=O)N1CCN(c2nc(OC[C@@H]3CCCN3C)nc3c2CCN(c2cncc4cccc([13CH3])c24)C3)C[C@@H]1CC#N [Compound 16, 2-((S)-1-(2-fluoroacryloyl)-4-(7-(5-(methyl-^13C)isoquinolin-4-yl)-2-(((S)-1-methylpyrrolidin-2-yl)methoxy)-5,6,7,8-tetrahydropyrido[3,4-d]pyrimidin-4-yl)piperazin-2-yl)acetonitrile]
[2H]C([2H])([2H])N1CCC[C@H]1COc1nc2c(c(N3CCN(C(=O)/C=C/CNC4CC4)[C@@H](CC#N)C3)n1)CCN(c1cccc3cccc(C)c13)C2 [Compound 19, 2-((S)-1-((E)-4-(cyclopropylamino)-2-butenoyl)-4-(2-(((S)-1-(methyl-d3)pyrrolidin-2-yl)methoxy)-7-(8-methylnaphthalen-1-yl)-5,6,7,8-tetrahydropyrido[3,4-d]pyrimidin-4-yl)piperazin-2-yl)acetonitrile]
[2H]C([2H])([2H])N1CCC[C@H]1COc1nc2c(c(N3CCN(C(=O)C=C)[C@@H](CC#N)C3)n1)CCN(c1cncc3cccc(Cl)c13)C2 [Compound 20, 2-((S)-1-acryloyl-4-(7-(5-chloroisoquinolin-4-yl)-2-(((S)-1-(methyl-d3)pyrrolidin-2-yl)methoxy)-5,6,7,8-tetrahydropyrido[3,4-d]pyrimidin-4-yl)piperazin-2-yl)acetonitrile]
[2H]C([2H])([2H])c1cccc2cccc(N3CCc4c(nc(OC[C@@H]5CCCN5C([2H])([2H])[2H])nc4N4CCN(C(=O)C=C)[C@@H](C)C4)C3)c12 [Compound 21, 1-((S)-2-methyl-4-(7-(8-(methyl-d3)naphthalen-1-yl)-2-(((S)-1-(methyl-d3)pyrrolidin-2-yl)methoxy)-5,6,7,8-tetrahydropyrido[3,4-d]pyrimidin-4-yl)piperazin-1-yl)-2-propen-1-one]
[2H]C([2H])([2H])N1CCC[C@H]1COc1nc2c(c(N3CCN(C(=O)C=C)[C@@H](CC#N)C3)n1)CCN(c1cccc3cccc([11CH3])c13)C2 [Compound 22, 2-((S)-1-acryloyl-4-(2-(((S)-1-(methyl-d3)pyrrolidin-2-yl)methoxy)-7-(8-(methyl-^11C)naphthalen-1-yl)-5,6,7,8-tetrahydropyrido[3,4-d]pyrimidin-4-yl)piperazin-2-yl)acetonitrile]
[2H]C([2H])([2H])c1cccc2cccc(N3CCc4c(nc(OC[C@@H]5CCCN5C([2H])([2H])[2H])nc4N4CCN(C(=O)C(=C)F)C[C@@H]4C)C3)c12 [Compound 23, 2-fluoro-1-((S)-3-methyl-4-(7-(8-(methyl-d3)naphthalen-1-yl)-2-(((S)-1-(methyl-d3)pyrrolidin-2-yl)methoxy)-5,6,7,8-tetrahydropyrido[3,4-d]pyrimidin-4-yl)piperazin-1-yl)-2-propen-1-one]
[2H]C([2H])([2H])c1cccc2cccc(N3CCc4c(nc(OC[C@@H]5CCCN5C([2H])([2H])[2H])nc4N4CCN(C(=O)C=C)C[C@@H]4C)C3)c12 [Compound 24, 1-((S)-3-methyl-4-(7-(8-(methyl-d3)naphthalen-1-yl)-2-(((S)-1-(methyl-d3)pyrrolidin-2-yl)methoxy)-5,6,7,8-tetrahydropyrido[3,4-d]pyrimidin-4-yl)piperazin-1-yl)-2-propen-1-one]
